Where two headings read alike, the source gives them in different places.
How the values were obtained:
YSK4 = molecular target: T1, YSK4 (Homo sapiens, UniProt Q56UN5); test: biochemical; parameters: Eurofins DiscoverX kinase panel, competitive binding assay at 1 uM, percent of DMSO control; conditions: competitive binding, percent of DMSO control
T1 construct: gene MAP3K19
T1 sequence (Q56UN5 1-1328): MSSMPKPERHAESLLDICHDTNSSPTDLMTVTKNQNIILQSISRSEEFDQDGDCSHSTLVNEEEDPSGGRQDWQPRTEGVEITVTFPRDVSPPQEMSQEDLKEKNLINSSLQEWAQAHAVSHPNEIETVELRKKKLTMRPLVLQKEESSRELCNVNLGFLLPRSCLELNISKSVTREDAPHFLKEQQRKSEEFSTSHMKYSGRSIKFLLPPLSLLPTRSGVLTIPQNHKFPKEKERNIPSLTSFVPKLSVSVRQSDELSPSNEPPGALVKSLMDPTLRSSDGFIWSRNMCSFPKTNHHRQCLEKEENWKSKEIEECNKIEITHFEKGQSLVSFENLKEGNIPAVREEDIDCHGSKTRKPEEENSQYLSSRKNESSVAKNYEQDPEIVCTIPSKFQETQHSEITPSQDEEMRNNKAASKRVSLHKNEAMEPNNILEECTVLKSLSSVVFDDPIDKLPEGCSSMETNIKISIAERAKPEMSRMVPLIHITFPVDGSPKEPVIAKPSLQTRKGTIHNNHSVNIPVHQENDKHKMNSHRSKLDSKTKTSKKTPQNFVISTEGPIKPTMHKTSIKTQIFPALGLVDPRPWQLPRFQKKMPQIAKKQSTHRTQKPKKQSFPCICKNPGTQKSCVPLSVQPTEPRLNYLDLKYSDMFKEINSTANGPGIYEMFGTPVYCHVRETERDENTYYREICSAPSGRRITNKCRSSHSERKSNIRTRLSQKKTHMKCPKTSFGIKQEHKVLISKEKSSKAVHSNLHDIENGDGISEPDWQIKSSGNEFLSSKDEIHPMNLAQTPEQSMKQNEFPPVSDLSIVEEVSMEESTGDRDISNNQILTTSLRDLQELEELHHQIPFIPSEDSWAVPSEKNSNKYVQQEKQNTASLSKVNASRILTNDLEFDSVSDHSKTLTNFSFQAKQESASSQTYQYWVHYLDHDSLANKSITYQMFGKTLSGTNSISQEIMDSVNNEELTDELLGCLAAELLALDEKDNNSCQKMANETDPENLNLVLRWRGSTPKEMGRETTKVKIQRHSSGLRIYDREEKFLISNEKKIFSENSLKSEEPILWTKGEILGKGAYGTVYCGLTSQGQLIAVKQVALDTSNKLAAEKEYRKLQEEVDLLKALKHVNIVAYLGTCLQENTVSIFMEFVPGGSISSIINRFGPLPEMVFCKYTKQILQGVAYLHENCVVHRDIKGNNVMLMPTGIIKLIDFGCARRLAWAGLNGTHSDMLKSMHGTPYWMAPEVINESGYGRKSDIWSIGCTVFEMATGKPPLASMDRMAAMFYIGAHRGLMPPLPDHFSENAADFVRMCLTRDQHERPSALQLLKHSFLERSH
Procedure, shortened: (§1)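 Competitive binding assay across a 96-kinase panel with KIF18A compounds at 1 µM; values given as percentage of control (POC), single experiment.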

NEK4 = NEK4 (Homo sapiens, UniProt P51957); test: biochemical; parameters: Eurofins DiscoverX kinase panel, competitive binding assay at 1 uM, percent of DMSO control; conditions: competitive binding, percent of DMSO control
NEK4, sequence (P51957 whole entry): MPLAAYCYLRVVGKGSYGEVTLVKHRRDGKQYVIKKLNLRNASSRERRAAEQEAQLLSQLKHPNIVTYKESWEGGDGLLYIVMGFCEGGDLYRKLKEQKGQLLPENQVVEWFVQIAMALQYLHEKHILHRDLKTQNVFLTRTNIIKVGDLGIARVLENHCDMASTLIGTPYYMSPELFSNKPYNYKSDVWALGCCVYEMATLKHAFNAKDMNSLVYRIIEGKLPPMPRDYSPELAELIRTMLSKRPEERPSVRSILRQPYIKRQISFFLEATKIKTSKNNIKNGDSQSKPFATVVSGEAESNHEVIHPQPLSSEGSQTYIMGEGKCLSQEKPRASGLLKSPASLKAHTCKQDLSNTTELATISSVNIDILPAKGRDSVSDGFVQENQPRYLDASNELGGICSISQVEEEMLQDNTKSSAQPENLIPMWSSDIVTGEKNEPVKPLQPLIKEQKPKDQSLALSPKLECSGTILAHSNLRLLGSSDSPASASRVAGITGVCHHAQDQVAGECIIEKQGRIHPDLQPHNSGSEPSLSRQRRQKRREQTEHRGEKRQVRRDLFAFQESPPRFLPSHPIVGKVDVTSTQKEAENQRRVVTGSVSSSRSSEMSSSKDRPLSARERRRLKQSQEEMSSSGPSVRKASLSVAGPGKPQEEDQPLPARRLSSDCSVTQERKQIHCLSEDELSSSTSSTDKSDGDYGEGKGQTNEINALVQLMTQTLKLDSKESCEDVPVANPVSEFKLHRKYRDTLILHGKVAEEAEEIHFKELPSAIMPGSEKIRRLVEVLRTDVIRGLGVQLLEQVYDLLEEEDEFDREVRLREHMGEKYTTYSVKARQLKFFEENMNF
Procedure, shortened: as §1

[1] = read-out: Kinome Profiling performed by Eurofins DiscoverX / AM-1882, 1.0 µM / POC
[2] = read-out: Kinome Profiling performed by Eurofins DiscoverX / AM-0277, 1.0 µM / POC
[3] = read-out: Kinome Profiling performed by Eurofins DiscoverX / AM-5308, 1.0 µM / POC

CC(C)(C)NS(=O)(=O)c1cccc(NC(=O)c2ccc(S(=O)(=O)NC(C)(C)C)cc2N2CCC3(CC2)CC3)c1 [AM-1882] gave a remaining activity at 1 µM (YSK4; [1]) of 87% and a remaining activity at 1 µM (NEK4; [1]) of 89%.

For CC(C)(CO)Nc1ccc(C(=O)Nc2cccc(S(=O)(=O)C3CCCC3)c2)c(N2CCC3(CC2)CC3)n1 [AM-0277], the remaining activity at 1 µM (YSK4; [2]) was 100% and the remaining activity at 1 µM (NEK4; [2]) was 100%.

With C[C@@H]1CN(c2cccc(NC(=O)c3ccc(NS(=O)(=O)CCO)cc3N3CCC4(CC3)CC4)n2)CCO1 [AM-5308] the remaining activity at 1 µM (YSK4; [3]) was 75.5% and the remaining activity at 1 µM (NEK4; [3]) was 100%.

Source: publication PMC10824666 (Nature Cancer, 2023)
